In patent US6455577B2, “Flavanone derivatives and composition for preventing or treating blood lipid level-related diseases comprising same” (Korea Research Institute of Bioscience and Biotechnology, priority 2000, dated 2002):

System: Sprague-Dawley rats
Assay: Plasma total cholesterol, HDL-cholesterol and triglyceride levels in rats fed high-cholesterol diet
Type: in vivo, rat
From the text: (Step 1) Administration of NG5006 to rats
30 four-week-old white Sprague-Dawley rats (Korea Institute of Science and Technology, Korea), each weighing about 90 to 120 g, were evenly divided into three dietary groups by a randomized block design. The rats of the three groups were fed with three different high-cholesterol diets, i.e., AIN-76 laboratory animal diet(ICN Biochemicals, Cleveland, Ohio, U.S.A.) containing 1% cholesterol(Control group), 1% cholesterol plus 0.02% naringenin and 1% cholesterol plus 0.036% NG5006, respectively.
The rats were allowed to feed freely on the specified diet together with water for six weeks, the ingestion amount was recorded daily and the rats were weighed every 7 days, and then the record was analyzed. […] (Step 2) Determination of total cholesterol, HDL-cholesterol and triglyceride contents in blood
The effects of administering naringenin or NG5006 to rats on the plasma cholesterol and triglyceride contents were determined as follows.
Blood samples were taken from the rats of the three dietary groups and total cholesterol level was determined by using Sigma Diagnostic Kit Cat. No. C0534(Sigma Chemical Co., U.S.A.). HDL fractions were separated therefrom by using HDL-cholesterol reagent(Sigma Chemical Co., Cat. No. 352-1) and HDL-cholesterol level was determined by using Sigma Diagnostic Kit Cat. No. C9908(Sigma Chemical Co., U.S.A.). Triglyceride level was determined by using Sigma Diagnostic Kit Cat. No. 336-10(Sigma Chemical Co., U.S.A.).

[1] = plasma, rats on 1% cholesterol diet plus 0.02% naringenin or 0.036% NG5006, six weeks
[2] = rats, 1% cholesterol diet, six weeks

CCCCCCCCCCCCCCCCOc1cc(O)c2c(c1)OC(c1ccc(O)cc1)CC2=O (centres unmarked) [NG5006, Naringenin 7-O-cetyl Ether]
HDL-C (HDL-cholesterol) [1]: 36.7 ± 1.3 mg/dL | HDL-C/Total-C [1]: 20.4 ± 0.7% | TG (triglyceride) [1]: 118.4 ± 3.4 mg/dL | Total-C (total cholesterol) [1]: 183.5 ± 6.4 mg/dL | AI: Atherosclerosis Index (AI = (Total-C − HDL-C)/HDL-C) (rats on 1% cholesterol diet plus 0.02% naringenin or 0.036% NG5006, six weeks): 4.0 ± 0.2 | lowering blood lipid level, comparison in words [2]: superior to naringenin in lowering blood lipid level | total plasma cholesterol level lower than in the Control group [2]: 19% | triglyceride level lower than in the control group [2]: 33%
